{"source": "patent US12623942B2", "about": "“Method for extracting salts and temperature- regenerated extracting composition” (ADIONICS, priority 2016, dated 2026)", "key": {"[1]": {"assay": "Selective extraction from a binary mixture NaCl/CaCl2", "settings": "for % E Ca^++ / % E Na^+: RT, molar %", "description": "A brine containing an equimolar mixture of salts, 0.05 mol/L of NaCl and CaCl2 each, which was made as described above, was contacted with two extracting compositions, one of which according to the invention.\nEach extracting composition comprises 0.1 mol/L of CEM\n[drawing 53] and 2.4 mol/L of ASM9 in 1,2-dichlorobenzene.\nA brine containing a mixture of NaCl and CaCl2 is made as described above to obtain the following initial saline concentrations in a mixture: 0.2 Mol/L of NaCl and 0.03 Mol/L of CaCl2. The extracting resin, is composed of 0.1 Mol/L of CEM2, 3.52 Mol/L of ASM2 and a complement of liquid ASM1, which is also used as a fluidizing agent."}, "[2]": {"assay": "Selective extraction from a mixture of NaCl, CaCl2, SrCl2 and BaCl2", "settings": "0.1 Mol/L CEM2 in ASM2/ASM1 60/40 by volume, RT", "protocol": "A brine containing a mixture of NaCl, CaCl2, SrCl2 and BaCl2 is made as described above. The dissolved salt concentrations are indicated in table VIII in mMol/L. The extraction was carried out a second time with changed divalent salt concentrations.\nThe extracting composition consists of 0.1 Mol/L of CEM2 and of a mixture of two ASMs. This mixture is composed of ASM2 which is usually referred to as [3,5-Bis(Trifluoromethyl)benzyl Alcohol] (35TFMBnOH) of CAS #: 32707-89-4, up to 60% by volume, and of ASM1, referred to as [3-(Trifluoromethyl)benzyl Alcohol](3TFMBnOH), of molecular formula C8H7F3O of MW=176.14 g/Mol and of CAS #: 349-75-7, up to 40% by volume, both serving as a fluidizing agent and as an ASM given its liquid form.\nThe extraction is carried out as described in example 1 and at room temperature."}, "[3]": {"assay": "Complexing constant Log K in methanol at 25° C.", "type": "binding", "protocol": "K is the complexing constant of a CEM and a […] cation in methanol, at 25° C., which is measured according to the standard method of isothermal calorimetric titration."}, "[4]": {"assay": "Liquid-liquid extraction of mono-salt saline solution", "description": "The extracting composition is obtained by solubilizing an amount of CEM and ASM in the selected fluidizing agent, dichloromethane CH2Cl2, dichlorobenzene or dichlorotoluene or any other fluidizing agent able to well solubilize the mixture CEM/ASM in order to obtain the searched final concentrations after solubilizing CEMs and ASMs in a minimum of 3 milliliters of fluidizing agent. If the selected fluidizing agent is also an ASM compound, so the selected ASM volume is at least 3 milliliters. The given concentrations of ASM2 and ASM9 are related to the added fluidizing agent volume and the concentrations of CEM are related to the added fluidizing agent+ASM volume. The extracting organic composition is then lightly heated so as to promote the solubilization of the organic compounds by means of a heat gun (temperature around 50 to 60° C.) for a few seconds (10 to 30 seconds) until a clear solution is obtained. The composition is thus left for 24 hours at room temperature so as to make sure that the obtained formulation is stable.\nThese sealed formulations are then orbitally stirred at 500 revolutions/minute for two hours after adding an equivalent volume of water which was distilled twice so as to allow a water saturation of the whole formulation and a pH control at the inlet and at the outlet (pH close to 7, or at least maintained after contact with the saturation water).\n3 mL of the prepared extracting organic composition are then taken from the lower phase of the decanted diphasic mixture and transferred to a vial containing 3 mL of the water containing the one or more considered chloride salts (NaCl or others), then the vial is sealed and orbitally stirred (at 500 revolutions per minute) for 2 hours at room temperature (RT), that is to say between 20 and 25° C.\nA verification is made to make sure that droplets in the range of 1-2 mm are really present during these stirrings in order to be sure that an equilibrium in the distribution of the considered chloride salt (NaCl or other) is achieved between both liquid phases at the end of stirring. The aspect of the organic and aqueous phases is clear and colorless or slightly turbid.\nOnce the 2-hour stirring is carried out, the stirring is stopped and the whole is left for decantation for about 10 minutes, at least until both phases are completely separated, at the temperature of the assay. Then, the upper aqueous phase is taken then stirred and diluted in order to analyze its salinity by a ion chromatography (a Metrohm™ device including a cation analyzing column and an anion analyzing column suitable for the ions and for the concentration of the salts which are searched for). Likewise, the chloride salt (NaCl or other) initial aqueous solution is also analyzed by this ion chromatography to determine its cation and chloride molar relative concentration before the extraction. All the extractions and analyses were duplicated.\nThe considered extracting composition comprises 0.1 mol/L of CEM1 and 3.52 mol/L of ASM2 in dichloromethane CH2Cl2, which was obtained as described above. The initial concentration of the considered salt in water, whether it is LiCl, NaCl, KCl, MgCl2, CaCl2, SrCl2 or BaCl2, is 0.1 mol/L.\nAfter carrying out these 7 specific extractions (duplicated) of salts, the amounts of extracted cations in relative molar percentage before and after extraction at room temperature and at water/extracting formulation iso-volume are indicated in table I: […]"}, "[5]": {"settings": "0.1 Mol/L CEM2 + 3.52 Mol/L ASM2 + complement of liquid ASM1, brine 0.2 Mol/L NaCl and 0.03 Mol/L CaCl2"}, "[6]": {"settings": "0.1 mol/L CEM + 2.4 mol/L ASM9 in 1,2-dichlorobenzene, brine 0.05 mol/L NaCl and CaCl2 each"}, "[7]": {"settings": "0.1M CEM + 3.52M ASM2 in CH2Cl2, initial salt 0.1 mol/L, Org./Water = 1, molar %"}}, "data": [{"smiles": "CCN(CC)C(=O)COc1c2cc(C(C)(C)C)cc1Cc1cc(C(C)(C)C)cc(c1OCC(=O)N(CC)CC)Cc1cc(C(C)(C)C)cc(c1OCC(=O)N(CC)CC)Cc1cc(C(C)(C)C)cc(c1OCC(=O)N(CC)CC)Cc1cc(C(C)(C)C)cc(c1OCC(=O)N(CC)CC)Cc1cc(C(C)(C)C)cc(c1OCC(=O)N(CC)CC)C2", "note": "[CEM2, 4-tert-butyl-Calix[6]arene hexakis(N,N-diethylacetamide)]", "values": [{"measurement": "% E Ca^++", "setting": "[1]; [5]", "value": 88.0, "unit": "%"}, {"measurement": "% E Na^+", "setting": "[1]; [5]", "value": 5.0, "unit": "%"}, {"measurement": "% E Ca^++", "setting": "[1]; [6]", "value": 56.0, "unit": "%"}, {"measurement": "% E Na^+", "setting": "[1]; [6]", "value": 4.0, "unit": "%"}, {"measurement": "Ratio of the Ca/Na extraction rates", "setting": "[1]; 0.2 Mol/L NaCl and 0.03 Mol/L CaCl2 (example 7)", "value": 17.6}, {"measurement": "Calcium to sodium extraction rate", "setting": "[1]; mixture with an iso-concentration of cations (example 6)", "value": 14, "unit": "times"}, {"measurement": "Final Concentration Sr^2+", "setting": "[2]; Table IX, initial 9.17", "value": 0, "unit": "mmol/L"}, {"measurement": "% extraction Sr^2+", "setting": "[2]; Table IX, initial 9.17 mMol/L", "value": 100, "unit": "%"}, {"measurement": "Final Concentration Ca^2+", "setting": "[2]; Table IX, initial 9.25", "value": 0, "unit": "mmol/L"}, {"measurement": "% extraction Ca^2+", "setting": "[2]; Table IX, initial 9.25 mMol/L", "value": 100, "unit": "%"}, {"measurement": "Final Concentration Ba^2+", "setting": "[2]; Table IX, initial 9.32", "value": 0, "unit": "mmol/L"}, {"measurement": "% extraction Ba^2+", "setting": "[2]; Table IX, initial 9.32 mMol/L", "value": 100, "unit": "%"}, {"measurement": "Final Concentration Na^+", "setting": "[2]; Table IX, initial 196.04", "value": 195.9835, "unit": "mmol/L"}, {"measurement": "% extraction Na^+", "setting": "[2]; Table IX, initial 196.04 mMol/L", "value": 0, "unit": "%"}, {"measurement": "ANIONS Cl− Final Concentration", "setting": "[2]; Table IX, initial 245.4", "value": 203.16, "unit": "mmol/L"}, {"measurement": "Final Concentration Sr^2+", "setting": "[2]; Table VIII, initial 4.29", "value": 0, "unit": "mmol/L"}, {"measurement": "% extraction Sr^2+", "setting": "[2]; Table VIII, initial 4.29 mMol/L", "value": 100, "unit": "%"}, {"measurement": "Final Concentration Ba^2+", "setting": "[2]; Table VIII, initial 4.69", "value": 0, "unit": "mmol/L"}, {"measurement": "% extraction Ba^2+", "setting": "[2]; Table VIII, initial 4.69 mMol/L", "value": 100, "unit": "%"}, {"measurement": "Final Concentration Ca^2+", "setting": "[2]; Table VIII, initial 29.13", "value": 0.4916, "unit": "mmol/L"}, {"measurement": "% extraction Ca^2+", "setting": "[2]; Table VIII, initial 29.13 mMol/L", "value": 98, "unit": "%"}, {"measurement": "Final Concentration Na^+", "setting": "[2]; Table VIII, initial 193.52", "value": 199.4775, "unit": "mmol/L"}, {"measurement": "% extraction Na^+", "setting": "[2]; Table VIII, initial 193.52 mMol/L", "value": 0, "unit": "%"}, {"measurement": "ANIONS Cl− Final Concentration", "setting": "[2]; Table VIII, initial 257.74", "value": 213.38, "unit": "mmol/L"}, {"measurement": "Log K(Cs^+, MeOH, 25° C.)", "setting": "[3]", "value": 2.8}, {"measurement": "Log K(K^+, MeOH, 25° C.)", "setting": "[3]", "value": 3.3}, {"measurement": "Log K(Li^+, MeOH, 25° C.)", "setting": "[3]", "value": 2.6}, {"measurement": "Log K(Na^+, MeOH, 25° C.)", "setting": "[3]", "value": 2.8}, {"measurement": "Log K(Rb^+, MeOH, 25° C.)", "setting": "[3]", "value": 2.6}, {"measurement": "Extraction rate at room temperature (RT), BaCl2", "setting": "[4]; [7]", "value": 63.2, "unit": "%"}, {"measurement": "Extraction rate at room temperature (RT), CaCl2", "setting": "[4]; [7]", "value": 57.8, "unit": "%"}, {"measurement": "Extraction rate at room temperature (RT), KCl", "setting": "[4]; [7]", "value": 25.4, "unit": "%"}, {"measurement": "Extraction rate at room temperature (RT), LiCl", "setting": "[4]; [7]", "value": 21.9, "unit": "%"}, {"measurement": "Extraction rate at room temperature (RT), MgCl2", "setting": "[4]; [7]", "value": 13.5, "unit": "%"}, {"measurement": "Extraction rate at room temperature (RT), NaCl", "setting": "[4]; [7]", "value": 22.7, "unit": "%"}, {"measurement": "Extraction rate at room temperature (RT), SrCl2", "setting": "[4]; [7]", "value": 63.8, "unit": "%"}, {"measurement": "Calcium to sodium extraction rate", "setting": "[4]; solutions containing only one of these salts (example 3)", "value": 2.54}]}]}
